Measured values reported in patent publication US8802737B2, “Method for improving tetracycline-resistance of Acinetobacter baumannii” (priority 2011, dated 2014).
≈ marks a conversion by molar mass, not a printed value.

Assays:
Format in all cases: cell-based, Acinetobacter baumannii
[1] = system: A. baumannii strain AB1; experiment: MIC by broth micro-dilution, clinical strain AB1; conditions: for MIC: Acinetobacter baumannii, read-out: susceptibilities to antibiotics (MICs); for MIC, ginger compound only: strain AB1, 10^5 cfu/mL, no tetracycline
Source text: (§1) Precisely, five strains of clinical A. baumannii, named AB1, AB2, AB4, AB5, AB6, are isolated from patients in Kaohsiung Medical University Hospital, 1600-bed tertiary referral medical center in Taiwan, wherein each of strains is from different clones by genotyping and collected from different samples, for example, sputum, wound pus, blood, pleural fluid, and bronchial washing. All of the five strains of A. baumannii are stored in trypticase soy broth (Difco Laboratories, Detroit, Mich.) with 20% glycerol at −80° C. until the following use.
(§2) Some of the antibiotics including ampicillin, cefazolin and cefmetazole have no MIC breakpoints according to CLSI.
(§3) In the present embodiment, 10^5 cfu/mL of each strain of A. baumannii are prepared, and the medication test of the present invention is carried out by respectively providing the medication of the present invention and the ginger compound only to each strain of A. baumannii. In this way, the antimicrobial activities of the medication of the present invention and of the ginger compound only are monitored and recorded respectively.

[2] = system: A. baumannii strain AB2; experiment: MIC by broth micro-dilution, clinical strain AB2; conditions: for MIC: Acinetobacter baumannii, read-out: susceptibilities to antibiotics (MICs); for MIC, ginger compound only: strain AB2, 10^5 cfu/mL, no tetracycline
Source text: as §1, §2, §3

[3] = system: A. baumannii strain AB4; experiment: MIC by broth micro-dilution, clinical strain AB4; conditions: for MIC: Acinetobacter baumannii, read-out: susceptibilities to antibiotics (MICs); for MIC, ginger compound only: strain AB4, 10^5 cfu/mL, no tetracycline
Source text: as §1, §2, §3

[4] = system: A. baumannii strain AB5; experiment: MIC by broth micro-dilution, clinical strain AB5; conditions: for MIC: Acinetobacter baumannii, read-out: susceptibilities to antibiotics (MICs); for MIC, ginger compound only: strain AB5, 10^5 cfu/mL, no tetracycline
Source text: as §1, §2, §3

[5] = system: A. baumannii strain AB6; experiment: MIC by broth micro-dilution, clinical strain AB6; conditions: for MIC: Acinetobacter baumannii, read-out: susceptibilities to antibiotics (MICs); for MIC, ginger compound only: strain AB6, 10^5 cfu/mL, no tetracycline
Source text: as §1, §2, §3

| Compound | MIC ([1]; strain AB1, LB broth) | MIC ([2]; strain AB2, LB broth) | MIC ([3]; strain AB4, LB broth) | MIC ([4]; strain AB5, LB broth) | MIC ([5]; strain AB6, LB broth) | other results |
| --- | --- | --- | --- | --- | --- | --- |
| CCN1CCN(C(=O)N[C@@H](C(=O)N[C@@H]2C(=O)N3[C@@H]2SC(C)(C)[C@@H]3C(=O)O)c2ccccc2)C(=O)C1=O [Piperacillin] | ≥ 128 µg/mL | ≥ 128 µg/mL | ≥ 128 µg/mL | ≥ 128 µg/mL | ≥ 128 µg/mL |  |
| Cc1nnc(SCC2=C(C(=O)O)N3C(=O)[C@@H](NC(=O)Cn4cnnn4)[C@H]3SC2)s1 [Cefazolin] | ≥ 64 µg/mL | ≥ 64 µg/mL | ≥ 64 µg/mL | ≥ 64 µg/mL | ≥ 64 µg/mL |  |
| CO/N=C(\C(=O)N[C@@H]1C(=O)N2C(C(=O)O)=C(CSc3nc(=O)c(=O)[nH]n3C)CS[C@H]12)c1csc(N)n1 [Ceftriaxone] | ≥ 64 µg/mL | ≥ 64 µg/mL | ≥ 64 µg/mL | ≥ 64 µg/mL | ≥ 64 µg/mL |  |
| CCCCCCCCC[C@H](O)CC(=O)CCc1ccc(O)c(OC)c1 [[10]-gingerol] |  |  |  |  |  | MIC, ginger compound only [1]: 144.6 µM (≈ 50.7 µg/mL); MIC, ginger compound only [2]: 162.3 µM (≈ 56.9 µg/mL); MIC, ginger compound only [3]: 196.0 µM (≈ 68.7 µg/mL); MIC, ginger compound only [4]: 207.5 µM (≈ 72.7 µg/mL); MIC, ginger compound only [5]: 198.1 µM (≈ 69.4 µg/mL) |
| CO[C@@]1(NC(=O)CSCC#N)C(=O)N2C(C(=O)O)=C(CSc3nnnn3C)CS[C@@H]21 [Cefmetazole] | ≥ 64 µg/mL | ≥ 64 µg/mL | ≥ 64 µg/mL | ≥ 64 µg/mL | ≥ 64 µg/mL |  |
| C[C@@H](O)[C@H]1C(=O)N2C(C(=O)O)=C(S[C@@H]3CN[C@H](C(=O)N(C)C)C3)[C@H](C)[C@H]12 [Meropenem] | ≥ 16 µg/mL | ≥ 16 µg/mL | ≥ 16 µg/mL | ≥ 16 µg/mL | ≥ 16 µg/mL |  |
| Gentamicin |  |  |  |  |  | susceptibilities to antibiotics (MICs) ([1]; strain AB1, LB broth): ≧16 μg/ml; susceptibilities to antibiotics (MICs) ([2]; strain AB2, LB broth): ≧16 μg/ml; susceptibilities to antibiotics (MICs) ([3]; strain AB4, LB broth): ≧16 μg/ml; susceptibilities to antibiotics (MICs) ([4]; strain AB5, LB broth): ≧16 μg/ml; susceptibilities to antibiotics (MICs) ([5]; strain AB6, LB broth): ≧16 μg/ml |
| CCCCC/C=C/C(=O)CCc1ccc(O)c(OC)c1 [[6]-shogaol] |  |  |  |  |  | MIC, ginger compound only [1]: 208.1 µM (≈ 57.5 µg/mL); MIC, ginger compound only [2]: 274.0 µM (≈ 75.7 µg/mL); MIC, ginger compound only [3]: 279.7 µM (≈ 77.3 µg/mL); MIC, ginger compound only [4]: 261.3 µM (≈ 72.2 µg/mL); MIC, ginger compound only [5]: 347.2 µM (≈ 96 µg/mL) |
| CO/N=C(\C(=O)N[C@@H]1C(=O)N2C(C(=O)[O-])=C(C[N+]3(C)CCCC3)CS[C@H]12)c1csc(N)n1 [Cefepime] | ≥ 64 µg/mL | ≥ 64 µg/mL | ≥ 64 µg/mL | ≥ 64 µg/mL | ≥ 64 µg/mL |  |
| CN(C)[C@@H]1C(O)=C(C(N)=O)C(=O)[C@@]2(O)C(O)=C3C(=O)c4c(O)cccc4[C@@](C)(O)[C@H]3C[C@@H]12 [Tetracycline] | 32 µg/mL (≈ 72 µM) | ≥ 512 µg/mL | ≥ 512 µg/mL | ≥ 512 µg/mL | ≥ 512 µg/mL |  |
| CCCCCC(=O)CC(=O)/C=C/c1ccc(O)c(OC)c1 [[6]-dehydrogingerdione] |  |  |  |  |  | MIC, ginger compound only [1]: 198.1 µM (≈ 57.5 µg/mL); MIC, ginger compound only [2]: 166.2 µM (≈ 48.3 µg/mL); MIC, ginger compound only [3]: 137.6 µM (≈ 40 µg/mL); MIC, ginger compound only [4]: 178.5 µM (≈ 51.8 µg/mL); MIC, ginger compound only [5]: 207.1 µM (≈ 60.1 µg/mL) |
| CC1(C)S[C@@H]2[C@H](NC(=O)[C@H](N)c3ccccc3)C(=O)N2[C@H]1C(=O)O [Ampicillin] | ≥ 512 µg/mL | ≥ 512 µg/mL | ≥ 512 µg/mL | ≥ 512 µg/mL | ≥ 512 µg/mL |  |
| CC(C)(O/N=C(\C(=O)N[C@@H]1C(=O)N2C(C(=O)[O-])=C(C[n+]3ccccc3)CS[C@H]12)c1csc(N)n1)C(=O)O [Ceftazidime] | ≥ 64 µg/mL | ≥ 64 µg/mL | ≥ 64 µg/mL | ≥ 64 µg/mL | ≥ 64 µg/mL |  |
| CCCCC[C@H](O)CC(=O)CCc1ccc(O)c(OC)c1 [[6]-gingerol] |  |  |  |  |  | MIC, ginger compound only [1]: 226.4 µM (≈ 66.7 µg/mL); MIC, ginger compound only [2]: 226.8 µM (≈ 66.8 µg/mL); MIC, ginger compound only [3]: 297.1 µM (≈ 87.5 µg/mL); MIC, ginger compound only [4]: 277.3 µM (≈ 81.6 µg/mL); MIC, ginger compound only [5]: 275.6 µM (≈ 81.1 µg/mL) |
